Publication PMC3357532, “Intracellular Loop 2 Peptides of the Human 5HT1a Receptor are Differential Activators of Gi” (International Journal of Peptides, 2012)
Read-outs that look alike come from different tables or passages of the source. Each block holds one molecule with its values, some of them ahead of it. Where no end group is shown, it is not given here.

Experiments:
H5-HT1aR [1] = biological target: T1, H5-HT1aR (Homo sapiens, UniProt P08908); experiment: Inhibition of agonist [3H]8-OH-DPAT binding (measure of receptor-G-protein coupling)
T1 construct: expressed in transfected cells; host or cells: CHO cells (Chinese hamster ovary), crude membranes
T1 sequence (P08908 1-422): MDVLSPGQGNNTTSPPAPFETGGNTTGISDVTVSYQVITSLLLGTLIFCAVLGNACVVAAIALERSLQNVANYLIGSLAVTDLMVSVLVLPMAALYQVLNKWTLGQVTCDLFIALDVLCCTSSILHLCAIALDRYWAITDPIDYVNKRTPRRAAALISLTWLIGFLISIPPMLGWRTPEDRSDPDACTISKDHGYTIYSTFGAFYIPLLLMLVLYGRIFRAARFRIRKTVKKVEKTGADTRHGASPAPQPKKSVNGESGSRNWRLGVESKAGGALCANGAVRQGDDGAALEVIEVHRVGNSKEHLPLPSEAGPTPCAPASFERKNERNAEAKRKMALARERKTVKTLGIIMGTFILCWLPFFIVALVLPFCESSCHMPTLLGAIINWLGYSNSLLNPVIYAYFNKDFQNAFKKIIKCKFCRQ
Procedure: Cells were trypsinized and centrifuged at low speed in ice-cold medium. The pellet was resuspended in ice-cold Earle's Balanced Salt Solution followed by centrifugation. Cells were resuspended in 10 mL of ice-cold binding buffer (50 mM Tris, 4 mM CaCl2, 10 μM pargyline, and pH 7.4), homogenized with Teflon-glass, and centrifuged for 450,000 g-min. at 4°C. For a crude membrane preparation, the pellet was resuspended in 30 mL of ice-cold binding buffer, homogenized on Teflon-glass and then by Polytron (setting 4) for 5 seconds, and stored on ice and assayed within the next 1.5 hours.
Binding of the agonist [3H]8-OH-DPAT ([3H]8-hydroxy-2-(di-n-propylamino)tetralin) to H5-HT1aR followed well-characterized protocols. Radioligands were purchased from New England Nuclear (NEN), Boston, MA, and 1 mL reaction mixtures, in triplicate, were incubated for 30 min. in a 30°C shaker. The 1 mL mixture was 700 μL of receptor preparation; 100 μL of binding buffer (for total binding) or 10 μM 5-HT (for nonspecific binding), 100 μL of the tritiated agent (concentration of 0.5 nM [3H] 8-OH-DPAT), and 100 μL of peptide or binding buffer in the case of controls.
Reactions were stopped by addition of 4 mL of ice-cold 50 mM Tris buffer, pH 7.4, and vacuum filtration on glass fiber filters (Whatman GF/B). Filters were rinsed twice in 5 mL of ice-cold Tris buffer, dried, and counted in 5 mL of Ecoscint (National Diagnostics) liquid scintillation fluid in a Beckman LS 6500. Homogenates were assayed for protein to maintain a nominal value of 50 μg protein per filter. All tubes were run in triplicate.

[2] = system: CHO cells expressing the human 5HT1aR; experiment: Forskolin-stimulated cAMP production (EIA); type: cell-based; settings: for [cAMP] (SEM), relative to FSK-stimulated control: 30 uM FSK, 100 uM IBMX, 20 min 37°C, control = 100; for FSK stimulated cAMP (%): Figure 5, IBMX, FSK control = 100
Procedure: CHO cells were cultured to confluency in 12- or 24-well plates. Medium was aspirated, and the cells were rinsed twice in warm, serum-free F-12 medium. Cells were incubated for 20 min. at 37°C in 0.5 mls of serum-free F-12 medium containing 100 uM isobutylmethylxanthine (IBMX) and the following substances (final concs.) alone or in combination (see Figures 3 and 5): 30 μM forskolin (FSK; for all treatments); 1 μM 5-HT; peptide concentrations as noted in figure legends. Reactions were stopped by aspiration of medium and addition of 0.5 mL of 100 mM HCl. After 10 min., well contents were removed and centrifuged at 4000 rpm. Supernatants were diluted in 100 mM HCl, and cAMP was quantified directly in a microplate format by enzyme immunoassay (EIA) with a kit from Assay Designs (Ann Arbor). Triplicate-independent samples were assayed.

[3] = system: Gi in H5-HT1aR membranes from transfected CHO cells; experiment: [35S]GTPγS incorporation into Gi; type: biochemical, human; settings: for GTP Incorp. (SEM), γ-[35S]-GTP into Gi, percent of control: peptide 30 uM (Figure 2), basal control = 100, 30 min 30°C
Procedure: H5-HT1aR membranes from transfected CHO cells were incubated with 5-HT (0.1 μM) and/or peptide concentrations as noted in figure legends (see Figures 2 and 4) and the following incubation mixture: 20 mM HEPES buffer, pH 7.4, 5 mM MgCl2, 1 mM EDTA, 1 mM DTT, 100 mM NaCl, 100 uM GDP, 10 μM pargyline, 0.2 mM ascorbate, and 0.1 nM [35S]GTPγS [53, 58]. Mixtures were incubated for 30 min. at 30°C, and were terminated by dilution in cold buffer. The mixture was filtered on GF/C filters, rinsed twice in buffer, dried and counted by liquid scintillation. All values reported in are for specific binding (total nonspecific) of triplicates. Nonspecific binding was determined in the presence of cold γ-S-GTP (10 uM). Negative control is the above mixture minus test drug or 5HT. Positive control contains 5HT.

H5-HT1aR [4] = biological target: T1, H5-HT1aR; settings: cited from earlier work
Description: (§1) Table 2 ic2 Peptide mimic effect on [3H]8-OH-DPAT binding. All binding inhibition values are percent of control agonist (ag.) bound. The upper portion of the table is for peptides nearer the C-terminus, including P11 from Thiagaraj et al., 2007 [53]. These peptides decreased the specific high affinity binding of 5HT1aR agonist [^3H]-8-OH-DPAT by 50% at the given concentration. The lower portion | column: Conc. (uM); % cont. ag, bound, (SEM) || Table 3 ic3 Peptide mimic coupling and signal transduction data. Summary of data generated for all ic3 experiments with P12 and P13. P1 is included as a reference, from Hayataka et al., 1998 [49]. Nominal values for control agonist binding were 400 fmoles/mg protein. | column: Agonist (%) inhibition

[5] = system: Gi in H5-HT1aR membranes from transfected CHO cells; settings: cited from earlier work
Description: as §1, with “GTP Incorp.” for “Conc. (uM); % cont. ag, bound,”, “[35S]-γ-S-GTP incorporation% above conro” for “Agonist (%) inhibition”

[6] = system: CHO cells expressing the human 5HT1aR; settings: cited from earlier work
Description: as §1, with “[cAMP]” for “Conc. (uM); % cont. ag, bound,”, “% Inhibition of FSK-stimulated cAMP” for “Agonist (%) inhibition”

[7] = biological target: Gi (G protein coupled to the human 5HT1a receptor in CHO cells) (Chinese hamster (endogenous in CHO))
[8] = biological target: Gi (G protein coupled to the human 5HT1a receptor in CHO cells) (Chinese hamster (endogenous in CHO)); remark: listed apart in the source
[9] = CHO H5-HT1aR membranes, 0.5 nM [3H]8-OH-DPAT, 30 min 30°C, shallow curves, read-out: Conc. (uM) at which specific high affinity [3H]8-OH-DPAT binding is decreased by 50% (IC50)

Molecule: WAITDPIDYV [Peptide P23]
- IC50 (H5-HT1aR [1]; [9]): 30 µM

Molecule: NCCc1c[nH]c2ccc(O)cc12 [Peptide 5HT, 5-hydroxytryptamine, reference compound]
- [cAMP] (SEM), relative to FSK-stimulated control ([2]; 1 uM 5-HT): 21 (4) %
- FSK stimulated cAMP (%) ([2]; 5HT alone (1 uM per method)): 24 ± 1%

Molecule: ITDPIDYVNK [Peptide P24]
- [cAMP] (SEM), relative to FSK-stimulated control ([2]; peptide 30 uM (Figure 3)): 45 (7) %
- GTP Incorp. (SEM), γ-[35S]-GTP into Gi, percent of control [3]: 146 (17) %

Molecule: IFRAARFRIRKTVKK [P1*]
- IC50 (H5-HT1aR [4]; [3H]8-OH-DPAT, ref Hayataka et al., 1998 [49], read-out: Agonist (%) inhibition: concentration giving 50% (IC50)): 3 µM
- inhibition (H5-HT1aR [4]; peptide 3 uM, ref Hayataka et al., 1998 [49], read-out: Agonist (%) inhibition): 50%
- [35S]-γ-S-GTP incorporation% above conro ([5]; peptide 1 uM, ref Hayataka et al., 1998 [49]): 30%
- inhibition ([6]; peptide 10 uM, ref Hayataka et al., 1998 [49], read-out: % Inhibition of FSK-stimulated cAMP): 10%

Molecule: VKKVEKTGAD [Peptide P13]
- IC50 (H5-HT1aR [1]; [3H]8-OH-DPAT, if 50% is listed, the concentration is the IC50, read-out: Agonist (%) inhibition: concentration giving 50% (IC50)): 15 µM
- inhibition (H5-HT1aR [1]; peptide 15 uM): 50%

Molecule: IDYVNKRTPR [Peptide P26, ic2 loop peptide mimic of H5HT1aR]
- [cAMP] (SEM), relative to FSK-stimulated control ([2]; peptide 30 uM (Figure 3)): 100 (5) %
- GTP Incorp. (SEM), γ-[35S]-GTP into Gi, percent of control [3]: 111 (9) %

- inhibition (H5-HT1aR [1]; peptide 30 uM, maximum inhibition possible with the highest soluble concentration): 28%
Molecule: KTVKKVEKTG [Peptide P12, ic3 peptide mimic of H5HT1aR]
- Change in intracellular cAMP concentration (in words) ([2]; FSK-stimulated, peptide 30 uM (Figure 5)): not altered
- FSK stimulated cAMP (%) ([2]; peptide alone 30 uM): 100 ± 6%
- inhibition ([2]; peptide 30 uM, read-out: % Inhibition of FSK-stimulated cAMP): 0%
- [35S]-γ-S-GTP incorporation% above conro ([3]; peptide 30 uM): 24%

Molecule: YVNKRTPRPR [Peptide P27, ic2 loop peptide mimic of H5HT1aR, C-terminal end]
- [cAMP] (SEM), relative to FSK-stimulated control ([2]; peptide 30 uM (Figure 3)): 132 (6) %
- GTP Incorp. (SEM), γ-[35S]-GTP into Gi, percent of control [3]: 130 (7) %

Molecule: IALDRYWAITD [Peptide P11, ic2 N-terminal (TM3/ic2) peptide mimic of H5HT1aR from a previous study, Thiagaraj et al., 2007]
- IC50 (H5-HT1aR [4]; CHO H5-HT1aR membranes, ref Thiagaraj et al., 2007 [53], read-out: Conc. (uM) at which specific high affinity [3H]8-OH-DPAT binding is decreased by 50% (IC50)): 7 µM
- GTP Incorp. (SEM), γ-[35S]-GTP into Gi, percent of control ([5]; peptide 30 uM (Figure 2), ref Thiagaraj et al., 2007 [53], SEM): 100 (3) %
- [cAMP] (SEM), relative to FSK-stimulated control ([6]; peptide 30 uM (Figure 3), 30 uM FSK, IBMX, ref Thiagaraj et al., 2007 [53], SEM): 87 (8) %

Molecule: RYWAITDPID [Peptide P22]
- IC50 (H5-HT1aR [1]; [9]): 16 µM

Molecule: LDRYWAITDP [Peptide P21]
- IC50 (H5-HT1aR [1]; [9]): 15 µM

Molecule: DPIDYVNKRT [Peptide P25, ic2 loop peptide mimic of H5HT1aR]
- [cAMP] (SEM), relative to FSK-stimulated control ([2]; peptide 30 uM (Figure 3)): 64 (3) %
- GTP Incorp. (SEM), γ-[35S]-GTP into Gi, percent of control [3]: 126 (10) %

- IC50 of agonist inhibition: peptide concentration at which specific [3H]8-OH-DPAT binding to H5-HT1aR in CHO membranes falls to about 50% of control (uncoupling of receptor from G protein) [7]: 15 µM
B1: P21, ic2 loop peptide mimic of the human 5HT1a receptor (peptide)
peptide: LDRYWAITDP

- IC50 of agonist inhibition: peptide concentration at which specific [3H]8-OH-DPAT binding to H5-HT1aR in CHO membranes falls to about 50% of control (uncoupling of receptor from G protein) [7]: 16 µM
B2: P22, ic2 loop peptide mimic of the human 5HT1a receptor (peptide)
peptide: RYWAITDPID

- IC50 of agonist inhibition: peptide concentration at which specific [3H]8-OH-DPAT binding to H5-HT1aR in CHO membranes falls to about 50% of control (uncoupling of receptor from G protein) [7]: 30 µM
B3: P23, ic2 loop peptide mimic of the human 5HT1a receptor (peptide)
peptide: WAITDPIDYV

- % inhibition of FSK-stimulated cAMP at 30 uM peptide, CHO cells expressing H5HT1aR [8]: -0 % inhibition
- [35S]-γ-S-GTP incorporation into Gi, % above control, at 30 uM peptide, CHO H5HT1aR membranes (% above control) [8]: 24
- agonist ([3H]8-OH-DPAT) % inhibition at 30 uM peptide, H5-HT1aR in CHO membranes (maximum inhibition possible with the highest soluble concentration; uncoupling of receptor from G protein) [8]: 28 % inhibition
B4: P12, ic3 loop peptide mimic of the human 5HT1a receptor (peptide)
peptide: KTVKKVEKTG

- % inhibition of FSK-stimulated cAMP at 30 uM peptide, CHO cells expressing H5HT1aR (negative: cAMP increased) [8]: -24 % inhibition
- IC50 of agonist inhibition: peptide concentration giving 50% inhibition of [3H]8-OH-DPAT binding to H5-HT1aR in CHO membranes (uncoupling of receptor from G protein) [8]: 15 µM
- [35S]-γ-S-GTP incorporation into Gi, % above control, at 30 uM peptide, CHO H5HT1aR membranes (% above control) [8]: 12
B5: P13, ic3 loop peptide mimic of the human 5HT1a receptor (peptide)
peptide: VKKVEKTGAD
